Several values for one entry are separate records, joined by “and”; a condition that tells them apart may be missing. Equal values may be shown once. Read-outs that look alike come from different tables or passages of the source. Values belong to the compound of their own block, whether it stands above or below them. Ends that are not written are not given here.
What was measured:
[1] = target: T1, mammalian ribonucleotide reductase (Bos taurus, UniProt Q32LP1); experiment: Peptide inhibition of mammalian ribonucleotide reductase activity; type: biochemical; details: for % RI (relative inhibitory potency, (IC50 AcFTLDADF)/(IC50 peptide analog)): mean and average deviation of 2-3 determinations, others single
T1 sequence (Q32LP1 1-791): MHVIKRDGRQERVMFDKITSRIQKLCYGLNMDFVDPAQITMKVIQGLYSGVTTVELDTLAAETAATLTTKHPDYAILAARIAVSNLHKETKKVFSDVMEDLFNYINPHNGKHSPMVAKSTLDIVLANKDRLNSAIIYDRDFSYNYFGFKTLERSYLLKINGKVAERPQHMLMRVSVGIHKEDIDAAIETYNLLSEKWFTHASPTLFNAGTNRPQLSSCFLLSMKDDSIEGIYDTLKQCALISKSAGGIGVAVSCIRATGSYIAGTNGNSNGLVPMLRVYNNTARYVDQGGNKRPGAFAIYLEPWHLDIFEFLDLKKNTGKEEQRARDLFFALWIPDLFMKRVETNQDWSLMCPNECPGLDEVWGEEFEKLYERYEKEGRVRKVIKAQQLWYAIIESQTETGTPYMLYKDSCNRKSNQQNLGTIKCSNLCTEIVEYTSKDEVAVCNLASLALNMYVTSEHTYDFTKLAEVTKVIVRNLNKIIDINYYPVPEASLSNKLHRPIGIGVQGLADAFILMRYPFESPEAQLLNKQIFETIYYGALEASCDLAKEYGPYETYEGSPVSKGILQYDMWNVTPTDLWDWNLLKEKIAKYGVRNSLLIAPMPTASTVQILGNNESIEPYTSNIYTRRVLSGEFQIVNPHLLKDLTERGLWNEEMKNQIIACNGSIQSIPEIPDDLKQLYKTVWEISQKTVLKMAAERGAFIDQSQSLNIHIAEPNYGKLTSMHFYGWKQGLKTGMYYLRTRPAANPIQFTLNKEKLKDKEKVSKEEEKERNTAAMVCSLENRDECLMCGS
Text: All three methods yielded acceptable results, with the following limitations. Method 1 is useful for the assay of CDP to dCDP and ADP to dADP conversions, but is not useful for the assay of GDP reduction. It is also sensitive to large changes in the nucleotide composition of the assay medium. […] Method 2 is the easiest to perform on purified enzymes, and can be used with all four NDPs as substrates, but is difficult to use with crude enzyme, largely because contaminating phosphatase activities can skew results. Method 3 is usable with all four NDPs, but is also somewhat sensitive to large changes in the nucleotide composition of the assay medium and requires column separation at 4° C.

mouse R1 = target: T2, mouse R1 (Mus musculus, UniProt P07742); details: cited from earlier work
T2 construct: made in house; host or cells: R1: Hi5 or Sf9 insect cells (baculovirus); R2: E. coli
T2 sequence (P07742 1-792): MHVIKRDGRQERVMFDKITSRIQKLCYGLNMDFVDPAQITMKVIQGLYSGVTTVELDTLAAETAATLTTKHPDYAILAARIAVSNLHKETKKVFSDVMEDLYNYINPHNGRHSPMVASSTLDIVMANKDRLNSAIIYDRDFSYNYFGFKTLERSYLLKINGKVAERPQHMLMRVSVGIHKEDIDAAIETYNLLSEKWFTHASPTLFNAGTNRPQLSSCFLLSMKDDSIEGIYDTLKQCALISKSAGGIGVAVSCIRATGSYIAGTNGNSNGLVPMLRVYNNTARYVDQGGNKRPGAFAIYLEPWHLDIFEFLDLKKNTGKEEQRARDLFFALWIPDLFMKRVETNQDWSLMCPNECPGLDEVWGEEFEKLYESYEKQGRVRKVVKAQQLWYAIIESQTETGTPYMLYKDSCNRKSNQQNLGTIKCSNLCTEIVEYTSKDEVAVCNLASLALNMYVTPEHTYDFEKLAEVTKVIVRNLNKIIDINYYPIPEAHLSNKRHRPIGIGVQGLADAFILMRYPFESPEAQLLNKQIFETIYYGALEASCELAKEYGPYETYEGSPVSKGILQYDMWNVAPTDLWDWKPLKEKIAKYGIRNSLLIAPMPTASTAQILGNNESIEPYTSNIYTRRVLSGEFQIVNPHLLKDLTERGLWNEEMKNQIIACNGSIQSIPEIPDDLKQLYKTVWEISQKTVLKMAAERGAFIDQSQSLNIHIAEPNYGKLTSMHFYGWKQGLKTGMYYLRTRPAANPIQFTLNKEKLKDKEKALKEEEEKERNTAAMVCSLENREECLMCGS

[2] = target: S. cerevisiae ribonucleotide reductase (Saccharomyces cerevisiae, UniProt P21524); experiment: Peptide inhibition of S. cerevisiae ribonucleotide reductase activity; type: biochemical; details: Table 9; read-out: IC50, Yeast RR
[3] = target: T1, mammalian ribonucleotide reductase; details: cited from earlier work
E. coli RR = target: T3, E. coli RR (Escherichia coli, UniProt P00452); details: cited from earlier work
T3 sequence (P00452 whole entry, looked up): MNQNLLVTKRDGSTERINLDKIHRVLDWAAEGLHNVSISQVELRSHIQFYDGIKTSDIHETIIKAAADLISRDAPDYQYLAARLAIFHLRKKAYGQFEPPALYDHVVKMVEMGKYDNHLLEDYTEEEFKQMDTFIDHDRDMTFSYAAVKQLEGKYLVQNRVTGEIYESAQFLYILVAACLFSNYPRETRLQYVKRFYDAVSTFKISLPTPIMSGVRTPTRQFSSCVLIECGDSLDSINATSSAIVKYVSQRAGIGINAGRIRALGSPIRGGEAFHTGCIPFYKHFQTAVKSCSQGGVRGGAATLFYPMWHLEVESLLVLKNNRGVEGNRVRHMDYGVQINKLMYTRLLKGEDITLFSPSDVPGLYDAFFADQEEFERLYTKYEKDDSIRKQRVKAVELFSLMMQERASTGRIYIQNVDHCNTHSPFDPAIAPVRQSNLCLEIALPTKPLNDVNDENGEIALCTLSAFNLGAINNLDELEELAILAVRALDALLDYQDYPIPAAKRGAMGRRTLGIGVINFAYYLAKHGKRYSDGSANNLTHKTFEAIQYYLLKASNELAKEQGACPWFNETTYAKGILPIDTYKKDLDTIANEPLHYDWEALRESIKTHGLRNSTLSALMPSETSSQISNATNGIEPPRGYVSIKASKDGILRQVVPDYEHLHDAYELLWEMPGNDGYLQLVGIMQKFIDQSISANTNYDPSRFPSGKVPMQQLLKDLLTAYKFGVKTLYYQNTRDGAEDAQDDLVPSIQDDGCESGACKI

RR = target: T4, RR (Mus musculus, UniProt P07742); experiment: Inhibition of RR by Compound 23; type: biochemical
T4 sequence (P07742 1-792): T2 sequence (P07742 1-792)
Text: Standard assays of RR activity used in the studies presented herein involve the conversion of [^3 H]-ribonucleoside diphosphate (NDP) to [^3 H]-deoxyribonucleoside diphosphate (dNDP), using dithiothreitol as the external reductant. Three methods were examined: Method 1 (Steeper et al., 1970, Anal. Biochem. 34:123-130), involving the conversion of diphosphates to nucleosides by enzymatic digestion, followed by the separation of deoxynucleoside from nucleoside on Dowex-1-borate columns; Method 2 (Moore et al., 1974, Biochemistry 13:2904-2907), involving the direct separation of dNDP from NDP on aminophenylboronate columns; Method 3 (Sato et al., 1983, Anal. Biochem. 135:431-435) involving the conversion of diphosphates to nucleosides by enzymatic digestion, followed by the separation of deoxynucleoside from nucleoside on polyethyleneimine-cellulose columns.
All three methods yielded acceptable results, with the following limitations. Method 1 is useful for the assay of CDP to dCDP and ADP to dADP conversions, but is not useful for the assay of GDP reduction. It is also sensitive to large changes in the nucleotide composition of the assay medium. Thus, it is quite useful for standard assays (purifications, tests of peptide inhibition), but difficult to apply when concentrations and substrate are widely varied. Method 2 is the easiest to perform on purified enzymes, and can be used with all four NDPs as substrates, but is difficult to use with crude enzyme, largely because contaminating phosphatase activities can skew results. Method 3 is usable with all four NDPs, but is also somewhat sensitive to large changes in the nucleotide composition of the assay medium and requires column separation at 4° C.

[4] = Table 8, Dixon plots of 4-6 concentration points, ranges are two independent determinations, read-out: IC50

Sequence of S. cerevisiae ribonucleotide reductase (P21524 whole entry): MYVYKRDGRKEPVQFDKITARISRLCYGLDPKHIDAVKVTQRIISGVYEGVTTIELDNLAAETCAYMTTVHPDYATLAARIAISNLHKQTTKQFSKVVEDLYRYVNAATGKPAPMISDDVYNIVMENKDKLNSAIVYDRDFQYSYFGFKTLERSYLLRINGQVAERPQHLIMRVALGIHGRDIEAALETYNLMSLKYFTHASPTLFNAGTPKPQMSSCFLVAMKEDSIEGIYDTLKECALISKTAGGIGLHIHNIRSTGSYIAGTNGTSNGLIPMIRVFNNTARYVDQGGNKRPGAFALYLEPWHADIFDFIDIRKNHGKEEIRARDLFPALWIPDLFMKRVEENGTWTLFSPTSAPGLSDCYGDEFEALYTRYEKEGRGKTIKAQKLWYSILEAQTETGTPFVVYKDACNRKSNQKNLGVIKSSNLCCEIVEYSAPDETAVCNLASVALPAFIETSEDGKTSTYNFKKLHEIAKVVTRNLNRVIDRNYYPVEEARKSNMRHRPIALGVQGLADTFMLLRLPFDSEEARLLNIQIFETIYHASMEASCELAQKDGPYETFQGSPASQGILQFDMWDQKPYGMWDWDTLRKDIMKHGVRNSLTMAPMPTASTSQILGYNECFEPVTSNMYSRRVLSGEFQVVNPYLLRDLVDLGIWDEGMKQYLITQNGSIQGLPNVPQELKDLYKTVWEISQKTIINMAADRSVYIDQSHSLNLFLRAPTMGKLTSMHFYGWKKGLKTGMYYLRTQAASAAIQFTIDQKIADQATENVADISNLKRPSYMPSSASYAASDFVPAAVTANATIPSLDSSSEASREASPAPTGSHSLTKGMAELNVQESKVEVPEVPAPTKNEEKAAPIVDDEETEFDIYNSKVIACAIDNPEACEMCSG

Fold decrease in RI relative to N-AcFTLDADF ([1]; Table 8): > 50 fold
% RI (relative inhibitory potency, (IC50 AcFTLDADF)/(IC50 peptide analog)) ([1]; Table 8): 1.7 ± 0.15%
Compound: Ac-FTLDAEF [Ac-FTLDAEF]

Fold decrease in RI relative to N-AcFTLDADF ([1]; Table 8): five to ten
% RI (relative inhibitory potency, (IC50 AcFTLDADF)/(IC50 peptide analog)) ([1]; Table 8): 10%
Compound: Acetyl-(p-amino-Phe)-Thr-Leu-Asp-Ala-Asp-Phe [Ac-F(4'-NH2)TLDADF]

% RI (relative inhibitory potency, (IC50 AcFTLDADF)/(IC50 peptide analog)) ([1]; Table 8): 100%
Compound: Ac-SFTLDADF
Affinity for mR1 compared with AcFTLDADF (mouse R1): same affinity

% RI (relative inhibitory potency, (IC50 AcFTLDADF)/(IC50 peptide analog)) ([1]; Table 8): 18 ± 4.2%
Compound: Ac-FTFDADF [Ac-FTFDADF]

Compound: Ac-TFNEDF [AcTFNEDF]
IC50 [2]: 600 µM

Fold decrease in RI relative to N-AcFTLDADF ([1]; Table 8): over 40 fold
% RI (relative inhibitory potency, (IC50 AcFTLDADF)/(IC50 peptide analog)) ([1]; Table 8): 3% and < 3%
Compound: Ac-FTLDADL [Ac-FTLDADL]

IC50 [1, 4]: > 400 µM
Compound: FTLDADF [FTLDADF, Phe-Thr-Leu-Asp-Ala-Asp-Phe]

IC50 ([1]; Table 9, read-out: IC50, Mammalian RR): 100 µM
Compound: Ac-FTFNEDF [AcFTFNEDF]

IC50 [1, 4]: 25 to 29 µM
Compound: Ac-FTLNADF [Ac-FTLNADF, Acetyl-Phe-Thr-Leu-Asn-Ala-Asp-Phe]

Compound: DDLSNFQL [reference compound]
Inhibition of mRR [3]: does not inhibit mRR
Inhibition of E. coli RR (E. coli RR): inhibits eRR

Fold decrease in RI relative to N-AcFTLDADF ([1]; Table 8): three to four
Residual Relative Activity (RR; 30 μM Compound 23): 86 ± 8 percentage
Residual Relative Activity (RR; 100 μM Compound 23): 73 ± 6 percentage
Residual Relative Activity (RR; 300 μM Compound 23): 64 ± 6 percentage
Residual Relative Activity (RR; 500 μM Compound 23): 48 ± 4 percentage
Residual Relative Activity (RR; 1000 μM Compound 23): 32 ± 6 percentage
Compound: CC(=O)N[C@@H](Cc1ccccc1)C(=O)NC[C@@H]1O[C@@H]([C@@H](C)C(=O)N[C@@H](CC(=O)O)C(=O)N[C@@H](Cc2ccccc2)C(=O)O)[C@@H](OCC(=O)O)C[C@H]1OCC(C)C [Compound 23]

IC50 [1, 4]: 9 to 15 µM
Compound: Ac-NSFTLDADF

IC50 [1, 4]: > 400 µM
Compound: Ac-LDADF [Ac-LDADF]

% RI (relative inhibitory potency, (IC50 AcFTLDADF)/(IC50 peptide analog)) ([1]; Table 8): 2.1%
Compound: Ac-FTLDADFAA

— patent US6030942A, “Peptides peptide analogs peptidomimetics and other small molecules useful for inhibiting the activity of ribonucleotide reductase” (The Trustees of the University of Pennsylvania, priority 1998, dated 2000)
